The results in this text go back to US7087623B2, “Thiazole and other heterocyclic ligands for mammalian dopamine, muscarinic and serotonin receptors and transporters, and methods of use thereof” (Sepracor Inc., priority 2001, dated 2006).

Data set [1] concerns the target T1, human muscarinic M3 receptor (Homo sapiens, UniProt P20309).
T1 construct: expressed in transfected cells; host or cells: BSR-M3H
Kind of data set: Binding to human muscarinic M3 receptors ([3H]N-methylscopolamine). As to the method:
(§1) This assay measures binding of [^3H]N-methylscopolamine to human muscarinic M3 receptors. BSR-M3H cells transfected with a plasmid encoding the human muscarinic M3 receptor were used to prepare membranes in modified Tris-HCl pH 7.4 buffer using standard techniques. A 5 μg aliquot of membrane was incubated with 0.29 nM [^3H]N-methylscopolamine for 60 minutes at 25° C. Non-specific binding was estimated in the presence of 1 μM atropine. Membranes were filtered and washed 3 times and the filters were counted to determine [^3H]N-methylscopolamine specifically bound. See Buckley, N. J., Bonner, T. I., Buckley, C. M. and Brann, M. R. Antagonist binding properties of five cloned muscarinic receptors expressed in CHO-K1 cells. Mol. Pharmacol. 35: 469–476, 1989.
(§2) The human 5-HT2a and 5-HT2b screens were conducted according to Bonhaus, D. W. et al. Br. J. Pharmacol. 1995, 115, 622. The human […], W. A. et al. J. Neurochem. 1997, 69, 1449. The human 5-HT6 screen was conducted according to Monsama, F. J. et al. Mol. Pharmacol. 1993, 43, 320. The assay to human D3 receptors was conducted according to Sokoloff, P. et al. Nature 1990, 347;146. The human dopamine transporter assay was conducted according to Gu, H. et. al. J. Biol. Chem. 1994, 269 (10);7124; and Giros, B. et al. Trends. Pharmacol. Sci. 1993, 14: 43. The human muscarinic M1–M4 screens were conducted according to Buckley N. J. et al. Mol. Pharmacol. 1989, 35:469.
(§3) The human dopamine transporter assay was conducted according to Gu, H. et. al. J. Biol. Chem. 1994, 269 (10);7124 and Giros, B. et al. Trends. Pharmacol. Sci. 1993, 14: 43. The human muscarinic M1–M4 screens were conducted according to Buckley N. J. et al. Mol. Pharmacol. 199, 35:469

Data set [2] has as its target T2, human muscarinic M2 receptor (Homo sapiens, UniProt P08172).
T2 construct: expressed in transfected cells; host or cells: BSR-M2H
T2 sequence (P08172 1-466): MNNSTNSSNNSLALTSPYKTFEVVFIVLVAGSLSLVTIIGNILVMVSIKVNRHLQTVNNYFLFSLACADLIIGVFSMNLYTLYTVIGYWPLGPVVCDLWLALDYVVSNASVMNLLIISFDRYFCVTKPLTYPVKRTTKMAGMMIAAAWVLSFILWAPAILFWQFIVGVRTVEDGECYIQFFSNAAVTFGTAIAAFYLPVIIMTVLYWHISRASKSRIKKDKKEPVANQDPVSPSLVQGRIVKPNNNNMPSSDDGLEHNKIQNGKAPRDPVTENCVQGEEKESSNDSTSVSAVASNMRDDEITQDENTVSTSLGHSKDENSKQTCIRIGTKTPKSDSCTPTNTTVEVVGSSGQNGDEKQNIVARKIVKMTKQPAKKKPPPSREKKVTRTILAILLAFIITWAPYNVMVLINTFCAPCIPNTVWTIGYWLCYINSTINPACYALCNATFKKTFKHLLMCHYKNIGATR
Kind of data set: Binding to human muscarinic M2 receptors ([3H]N-methylscopolamine). The procedure: as §1, with “M2” for “M3”, “BSR-M2H” for “BSR-M3H”, “469–476, 1989; and Delmendo, R. E., Michel, A. D. and Whiting, R. L. Affinity of muscarinic receptor antagonists for the three putative muscarinic binding sites. Br. J. Pharmacol. 96: 457–464,” for “469–476,”
as §2, §3

Data set [3] deals with T3, human dopamine D3 receptor (Homo sapiens, UniProt P35462).
T3 construct: expressed in transfected cells; host or cells: CHO
Kind of data set: Radioligand binding assay, human dopamine D3 receptors ([3H]Spiperone).

Data set [4] concerns Wistar rats. Kind of data set: Acute toxicity assessment (maximum tolerated dose) in Wistar rats, i.v. The class given is in vivo. As to conditions: observed 72 hours. The procedure: An in vivo evaluation was carried out to determine the maximum tolerated dose of certain compounds in Wistar rats (male and female weighing ˜[…]). The compounds were administered i.v. and the animals were then observed for 72 hours. Compounds 37, 93, and 112 were solubilized in 5% dextrose (w/v)/polyethylene glycol 400 (4:1 v/v).

[5] abbreviates: human, Example 101 table, read-out: IC50 (nM) M3.
Setting [6] is: human, Example 101 table, read-out: IC50 (nM) M2.
Where [7] appears, read: Example 20 table, read-out: IC50 (nM) Against Human D3 Receptors.
[8] abbreviates: human, Example 100 table, read-out: IC50 (nM) M3.
[9] abbreviates: human, Example 100 table, read-out: IC50 (nM) M2.
Where [10] appears, read: human, Example 100 table, read-out: IC50 (nM) D3.

Read-outs that look alike come from different tables or passages of the source.

T3 sequence (P35462 whole entry): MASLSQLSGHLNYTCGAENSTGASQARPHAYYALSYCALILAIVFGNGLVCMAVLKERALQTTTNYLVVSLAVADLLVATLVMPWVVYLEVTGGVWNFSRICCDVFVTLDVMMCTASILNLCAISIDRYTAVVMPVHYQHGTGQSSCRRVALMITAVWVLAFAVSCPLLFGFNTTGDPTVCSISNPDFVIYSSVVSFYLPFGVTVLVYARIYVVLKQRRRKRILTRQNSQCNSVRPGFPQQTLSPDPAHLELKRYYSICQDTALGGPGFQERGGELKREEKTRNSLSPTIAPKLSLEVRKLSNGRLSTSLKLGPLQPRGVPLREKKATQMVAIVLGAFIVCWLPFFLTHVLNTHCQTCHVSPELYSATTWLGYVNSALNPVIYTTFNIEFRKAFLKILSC
T1 sequence (P20309 whole entry): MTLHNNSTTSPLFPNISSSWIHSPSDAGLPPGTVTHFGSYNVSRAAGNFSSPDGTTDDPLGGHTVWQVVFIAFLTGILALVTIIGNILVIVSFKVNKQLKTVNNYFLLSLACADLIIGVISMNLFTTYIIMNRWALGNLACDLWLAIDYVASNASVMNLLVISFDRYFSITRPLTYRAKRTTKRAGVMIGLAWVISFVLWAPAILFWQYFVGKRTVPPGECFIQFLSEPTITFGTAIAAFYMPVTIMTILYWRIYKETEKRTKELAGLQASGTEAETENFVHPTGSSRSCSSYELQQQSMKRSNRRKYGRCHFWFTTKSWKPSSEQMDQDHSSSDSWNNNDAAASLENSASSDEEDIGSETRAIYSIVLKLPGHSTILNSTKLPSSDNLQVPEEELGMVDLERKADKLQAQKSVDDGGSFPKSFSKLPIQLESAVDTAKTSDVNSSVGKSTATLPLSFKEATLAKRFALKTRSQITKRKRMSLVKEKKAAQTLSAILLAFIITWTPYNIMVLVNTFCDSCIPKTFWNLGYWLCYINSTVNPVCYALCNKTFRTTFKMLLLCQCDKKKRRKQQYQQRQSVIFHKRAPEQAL

Regarding `Clc1ccc(C2(c3csc(N4CCNCC4)n3)CCOCC2)cc1` [Compound 37], the IC50 (usually the concentration needed to halve the response being measured) in data set [1] (setting [5]) was below 500 nM; in data set [2] (setting [6]), above 1000 nM; in data set [3] (setting [7]), below 1000 nM. In data set [4] (60 mg/kg i.v.), the “Tolerability and mortality after 72 h” value is “well tolerated by the animals and did not cause any mortality”.
As to `CN1CCN(c2nc(C3(c4ccccc4F)CCOCC3)cs2)CC1` [Compound 112], the 50% inhibitory concentration (IC50) in data set [1] (setting [8]) was above 1000 nM; in data set [2] (setting [9]), above 1000 nM; in data set [3] (setting [10]) it was below 1000 nM. Also, the “Tolerability and mortality after 72 h” value in data set [4] (30 mg/kg i.v.) is “well tolerated by the animals and did not cause any mortality”.
With `CN1CCN(c2nc(C3(c4ccccc4)CCOCC3)cs2)CC1` [Compound 59], the IC50 was above 1000 nM in data set [1]; above 1000 nM in data set [2]; above 1000 nM in data set [3] (IC50 (nM) Against Human D3 Receptors, Example 20 table).
`CN1CCN(c2nc(C3(c4csc5ccc(Cl)cc45)CCOCC3)cs2)CC1` [Compound 36]: the IC50 in data set [1] (setting [5]) is above 1000 nM; in data set [2] (setting [6]), above 1000 nM; in data set [3] (setting [7]), below 1000 nM.
For the compound `CN1CCCC1CCNc1nc(C2(c3ccccc3F)CCCCC2)cs1` (single isomer, unassigned) [Compound 130, {4-[1-(2-fluorophenyl)-cyclohexyl]-thiazol-2-yl}-[2-(1-methyl-pyrrolidin-2-yl)-ethyl]-amine], the half-inhibitory concentration (IC50) is below 1000 nM in data set [1] (setting [8]), above 1000 nM in data set [2] (setting [9]) and below 100 nM in data set [3] (setting [10]).
Take `CN1CCCC1CCNc1nc(C2(c3ccccc3F)CCCCC2)cs1` (racemic) [Compound 128, {4-[1-(2-fluorophenyl)-cyclohexyl]-thiazol-2-yl}-[2-(1-methyl-pyrrolidin-2-yl)-ethyl]-amine]: the IC50 in data set [1] (setting [8]) is below 1000 nM; in data set [2] (setting [9]) it was above 1000 nM; in data set [3] (setting [10]), below 100 nM.
As to `CN1CCN(c2nc(C3(c4ccccc4F)CCCC3)cs2)CC1` [Compound 93], the IC50 in data set [1] (setting [5]) is below 100 nM; in data set [2] (setting [6]) it was below 500 nM; in data set [3] (setting [7]), below 1000 nM. For the same compound, the “Tolerability and mortality after 72 h” value in data set [4] (60 mg/kg i.v.) was “well tolerated by the animals and did not cause any mortality”.
With `CN1CCN(c2nc(C3(c4cccc(Cl)c4)CCOCC3)cs2)CC1` [Compound 63], the 50% inhibitory concentration (IC50) is above 1000 nM in data set [1] (setting [5]), above 1000 nM in data set [2] (setting [6]) and below 1000 nM in data set [3] (setting [7]).
Consider `CN1CCN(c2nc(C3(c4ccccc4F)CCCCC3)cs2)CC1` [Compound 83], for which the IC50 is below 500 nM in data set [1] (setting [5]), above 1000 nM in data set [2] (setting [6]) and below 100 nM in data set [3] (setting [7]).
